Experimental data reported in ChEMBL document CHEMBL1157876, “Isomeric tropane alkaloids from the aerial parts of Schizanthus tricolor” (J Nat Prod, 2010).

Experiments:
[1] = tested on: Plasmodium falciparum; experiment: Antimalarial activity against chloroquine and pyrimethamine-resistant Plasmodium falciparum K1 infected in human erythrocytes after 72 hrs by spectrophotometry based Malstat method; assay type: functional, organism-based; conditions: K1, 72 h
[2] = Cytotoxicity against human MRC5 SV2 cells after 72 hrs by resazurin dye reduction assay; assay type: cell-based

Row | SMILES | IC50 [1] [µM] | CC50 at 72 h [2] [µM]
1 | COC(=O)/C(C)=C/C(=O)O[C@@H]1C[C@H]2C[C@H](OC(=O)C=C(C)C)[C@H](C1)N2C | 63.5 | –
2 | C=C(CC(=O)O[C@@H]1C[C@H]2C[C@H](OC(=O)C=C(C)C)[C@H](C1)N2C)C(=O)OC | 22.8 | > 64
3 | C/C=C(/C)C(=O)O[C@H]1C[C@@H]2C[C@@H](OC(=O)/C=C(\C)C(=O)OC)C[C@@H]1N2C | 24.8 | > 64
4 | C/C=C(\C)C(=O)O[C@H]1C[C@@H]2C[C@@H](OC(=O)/C=C(\C)C(=O)OC)C[C@@H]1N2C | 36 | > 64
5 | CCN(CC)Cc1cc(Nc2ccnc3cc(Cl)ccc23)ccc1O | < 0.25 | –
